In article PMC11796197, “Targeting AI-2 quorum sensing: harnessing natural products against Streptococcus suis biofilm infection” (Veterinary Research, 2025):

Biological target: LuxS (S-ribosylhomocysteinase) (Streptococcus suis, UniProt A4VZM6)
Assay: Ellman (DTNB) homocysteine assay, […] nm, SRH as substrate
Type: biochemical
Details: SRH 0-1200 uM, sodium phosphate buffer, 37 C, 15 min, LuxS 1 mg/mL

Chain of LuxS (S-ribosylhomocysteinase) (A4VZM6 whole entry): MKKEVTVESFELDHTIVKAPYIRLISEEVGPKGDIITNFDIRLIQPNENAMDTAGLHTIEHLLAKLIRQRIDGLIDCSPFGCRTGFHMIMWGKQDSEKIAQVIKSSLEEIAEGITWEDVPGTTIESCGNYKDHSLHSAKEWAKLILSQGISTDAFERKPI

Compound	Ellman (DTNB) homocysteine assay, 412 nm, SRH as substrate (competitive)	Ellman (DTNB) homocysteine assay, 412 nm, SRH as substrate (noncompetitive)
COc1ccc(/C=C/c2cc(O)cc(O[C@@H]3O[C@H](CO)[C@@H](O)[C@H](O)[C@H]3O)c2)cc1O [RH, rhapontin]	indicating a competitive inhibitory impact of RH on LuxS	
O=C(/C=C/c1ccc(O)c(O)c1/C=C/c1ccc(O)c(O)c1)O[C@H](Cc1ccc(O)c(O)c1)C(=O)O [SAA, salvianolic acid A]		suggesting a noncompetitive inhibitory effect of SAA on LuxS
